The target in one test is T1, IDH1 R132C (Homo sapiens, UniProt O75874, R132C).
T1 construct: 6xHis
As to the kind of experiment: Biochemical assay for IDH inhibition (NADPH fluorescence), mutant IDH1 R132C. The settings on record: 25 nM IDH1-R132C, 1 hour pre-incubation, in triplet. The procedure, abridged: (§1)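 Mutant enzyme (25 nM R132C or 50 nM R132H) was preincubated 1 h at room temperature with compound in pH 7.5 Tris buffer containing 1.33 mM α-KG, and the reaction was then started with NADPH (80 μM solution). NADPH consumption was followed by fluorescence (Ex 340/Em 460 nm) for 15 min. IC50 was derived from background-corrected linear rates relative to vehicle, run in triplicate.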

In test [1] the target is T2, IDH (endogenous IDH1 R132C) in HT1080 cell (Homo sapiens, UniProt O75874, R132C).
T2 construct: which harbor endogenous heterozygous IDH1 R132C and R132H mutation respectively and accumulate D-2-HG
T2 sequence (O75874 2-414 R132C): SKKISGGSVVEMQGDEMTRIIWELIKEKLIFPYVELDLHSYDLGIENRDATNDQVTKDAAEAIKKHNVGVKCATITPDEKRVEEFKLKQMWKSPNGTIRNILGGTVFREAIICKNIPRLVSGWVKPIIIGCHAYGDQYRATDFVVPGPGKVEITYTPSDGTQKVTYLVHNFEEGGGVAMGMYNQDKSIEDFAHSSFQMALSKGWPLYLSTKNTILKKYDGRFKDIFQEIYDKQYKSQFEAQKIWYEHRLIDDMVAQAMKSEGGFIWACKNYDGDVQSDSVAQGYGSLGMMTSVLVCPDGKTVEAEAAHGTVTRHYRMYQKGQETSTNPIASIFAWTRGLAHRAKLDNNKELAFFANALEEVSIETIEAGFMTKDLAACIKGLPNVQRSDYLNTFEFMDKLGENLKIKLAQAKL
As to the kind of experiment: Cell-based assay for IDH inhibition (decrease of D-2-HG) in HT1080 cells. To be noted: human fibrosarcoma cell line HT1080, 16 hours treatment, D-2-HG by LC-MS, in triplet. In short, it runs like this:
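HT1080 cells with endogenous IDH1 R132C, grown in DMEM/10% FBS, treated with compound at several concentrations for 16 h. Metabolites extracted in cold 40% methanol/40% acetonitrile and D-2-HG measured by HILIC LC-MS/MS, normalized to glutamate. IC50 from D-2-HG relative to DMSO controls; run in triplicate.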

In another test the target is T3, IDH1 R132H (Homo sapiens, UniProt O75874, R132H).
T3 construct: 6xHis
T3 sequence (O75874 whole entry R132H): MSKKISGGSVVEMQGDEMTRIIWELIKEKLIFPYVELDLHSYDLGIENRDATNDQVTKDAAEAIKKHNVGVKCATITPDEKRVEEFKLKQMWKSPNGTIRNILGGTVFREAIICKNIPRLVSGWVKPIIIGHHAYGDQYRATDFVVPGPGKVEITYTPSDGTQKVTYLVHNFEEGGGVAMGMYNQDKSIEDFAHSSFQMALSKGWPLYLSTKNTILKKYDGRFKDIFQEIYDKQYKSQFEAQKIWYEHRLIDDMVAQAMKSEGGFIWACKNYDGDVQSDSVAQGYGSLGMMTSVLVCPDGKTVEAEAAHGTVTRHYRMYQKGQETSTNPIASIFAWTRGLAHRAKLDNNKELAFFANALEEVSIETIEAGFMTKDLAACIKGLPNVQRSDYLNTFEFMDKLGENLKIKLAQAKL
Put plainly: Biochemical assay for IDH inhibition (NADPH fluorescence), mutant IDH1 R132H. To be noted: 50 nM IDH1-R132H, 1 hour pre-incubation, in triplet. The procedure, abridged: as §1

Each structure is given as a SMILES string.

The term IC50 denotes the concentration needed to halve the response being measured.

T1 sequence (O75874 whole entry R132C): as the sequence (O75874 whole entry R132H) above, with H132C counted along it

For the compound `CCN1Cc2c(ccnc2N[C@@H](C)c2ccc(-n3ccc(C)n3)c(F)c2)C1=O` [Compound 59, (S)-2-ethyl-4-((1-(3-fluoro-4-(3-methyl-1H-pyrazol-1-yl)phenyl)ethyl)amino)-2,3-dihydro-1H-pyrrolo[3,4-c]pyridin-1-one], the IC50 (at IDH1 R132C; in test [1]; at IDH1 R132H) was greater than 1 µM throughout.

On to `CCN1Cc2c(ccnc2N[C@@H](C)c2ccc(C(=O)c3ccccc3)c(F)c2)C1=O` [Compound 60, (S)-4-((1-(4-benzoyl-3-fluorophenyl)ethyl)amino)-2-ethyl-2,3-dihydro-1H-pyrrolo[3,4-c]pyridin-1-one], for which the IC50 (on IDH1 R132C; in test [1]; at IDH1 R132H) was greater than 1 µM throughout.

On to `CCN1Cc2c(ccnc2N[C@@H](C)c2ccc(C(=O)c3cccnc3)c(F)c2)C1=O` [Compound 61, (S)-2-ethyl-4-((1-(3-fluoro-4-nicotinoylphenyl)ethyl)amino)-2,3-dihydro-1H-pyrrolo[3,4-c]pyridin-1-one], for which the IC50 (at IDH1 R132C; in test [1]; at IDH1 R132H) was greater than 1 µM each time.

Regarding `CCN1Cc2c(ccnc2N[C@@H](C)c2ccc(C(=O)NC3CCCCC3)c(Cl)c2)C1=O` [Compound 62, (S)-2-chloro-N-cyclohexyl-4-(1-((2-ethyl-1-oxo-2,3-dihydro-1H-pyrrolo[3,4-c]pyridin-4-yl)amino)ethyl)benzamide], the 50% inhibitory concentration (IC50) (at IDH1 R132C; in test [1]; at IDH1 R132H) was greater than 1 µM throughout.

Take `CCN1Cc2c(ccnc2N[C@@H](C)c2cc(C(C)(C)C)ncc2F)C1=O` [Compound 63, (S)-4-((1-(2-(tert-butyl)-5-fluoropyridin-4-yl)ethyl)amino)-2-ethyl-2,3-dihydro-1H-pyrrolo[3,4-c]pyridin-1-one]: the IC50 (at IDH1 R132C; in test [1]; at IDH1 R132H) was greater than 1 µM throughout.

`CCN1Cc2c(ccnc2N[C@@H](C)c2cc3cc(Cl)ccc3[nH]c2=O)C1=O` [Compound 64, (S)-6-chloro-3-(1-((2-ethyl-1-oxo-2,3-dihydro-1H-pyrrolo[3,4-c]pyridin-4-yl)amino)ethyl)quinolin-2(1H)-one]: the IC50 on IDH1 R132C was greater than 1 µM; in test [1], greater than 1 µM; at IDH1 R132H, 0.1 to 0.5 µM.

In the case of `CCN1Cc2c(N[C@@H](C)c3ccc(Oc4ccc(C)cc4)c(F)c3)ncnc2C1=O` [Compound 65, 6-ethyl-4-[[(1S)-1-[3-fluoro-4-(4-methylphenoxy)phenyl]ethyl]amino]-5H-pyrrolo[3,4-d]pyrimidin-7-one], the values for the IC50 (on IDH1 R132C; in test [1]; at IDH1 R132H) were greater than 1 µM, 0.1 to 0.5 µM and greater than 1 µM, respectively.

Consider `CCN1Cc2c(N[C@@H](C)c3ccc(-c4ccnc(C(C)(C)C)c4)c(F)c3)ncnc2C1=O` [Compound 66, (S)-4-((1-(4-(2-(tert-butyl)pyridin-4-yl)-3-fluorophenyl)ethyl)amino)-6-ethyl-5H-pyrrolo[3,4-d]pyrimidin-7(6H)-one], for which the concentration for half-maximal inhibition (IC50) is greater than 1 µM on IDH1 R132C, 0.5 to 1 µM in test [1] and 0.1 to 0.5 µM on IDH1 R132H.

For the compound `CCN1Cc2c(N[C@@H](C)c3ccc(-c4ccc(F)c(C)c4)c(F)c3)ncnc2C1=O` [Compound 67, (S)-4-((1-(2,4′-difluoro-3′-methyl-[1,1′-biphenyl]-4-yl)ethyl)amino)-6-ethyl-5H-pyrrolo[3,4-d]pyrimidin-7(6H)-one], the half-maximal inhibitory concentration (IC50) at IDH1 R132C is greater than 1 µM; in test [1] it was 0.1 to 0.5 µM; on IDH1 R132H, greater than 1 µM.

As to `CCN1Cc2c(ccnc2N[C@@H](C)c2ccc(C3CCCC3)c(F)c2)C1=O` [Compound 68, 4-[[(1S)-1-(4-cyclopentyl-3-fluoro-phenyl)ethyl]amino]-2-ethyl-3H-pyrrolo[3,4-c]pyridin-1-one], the results for the IC50 (at IDH1 R132C; in test [1]; on IDH1 R132H) were greater than 1 µM, greater than 1 µM and 0.5 to 1 µM, respectively.

`CCN1Cc2c(ccnc2N[C@@H](C)c2ccc(-c3ccnc(C(C)(C)C(N)=O)c3)c(F)c2)C1=O` [Compound 69, 2-[4-[4-[(1S)-1-[(2-ethyl-1-oxo-3H-pyrrolo[3,4-c]pyridin-4-yl)amino]ethyl]-2-fluoro-phenyl]-2-pyridyl]-2-methyl-propanamide]: the 50% inhibitory concentration (IC50) is greater than 1 µM at IDH1 R132C, 0.5 to 1 µM in test [1] and greater than 1 µM on IDH1 R132H.

Consider `CCN1Cc2c(ccnc2N[C@@H](C)c2ccc(-c3ccnc4ccccc34)c(F)c2)C1=O` [Compound 70, (S)-2-ethyl-4-((1-(3-fluoro-4-(quinolin-4-yl)phenyl)ethyl)amino)-2,3-dihydro-1H-pyrrolo[3,4-c]pyridin-1-one], for which the IC50 (at IDH1 R132C; in test [1]; at IDH1 R132H) was greater than 1 µM each time.

As for `CCN1Cc2c(ccnc2N[C@@H](C)c2ccc(-c3ccnc(C(C)(C)C)c3)c(F)c2)C1=O` [Compound 71, (S)-4-((1-(4-(2-(tert-butyl)pyridin-4-yl)-3-fluorophenyl)ethyl)amino)-2-ethyl-2,3-dihydro-1H-pyrrolo[3,4-c]pyridin-1-one], the IC50 at IDH1 R132C is less than 0.1 µM; in test [1], 0.1 to 0.5 µM; at IDH1 R132H it was less than 0.1 µM.

For `CCN1Cc2c(ccnc2N[C@@H](C)c2ccc(-c3ccc4c(ccn4C)c3)c(F)c2)C1=O` [Compound 72, (S)-2-ethyl-4-((1-(3-fluoro-4-(1-methyl-1H-indol-5-yl)phenyl)ethyl)amino)-2,3-dihydro-1H-pyrrolo[3,4-c]pyridin-1-one], the IC50 was 0.5 to 1 µM on IDH1 R132C, greater than 1 µM in test [1] and 0.1 to 0.5 µM at IDH1 R132H.

As for `CCN1Cc2c(ccnc2N[C@@H](C)c2ccc(-c3ccc(C)cc3)c(F)c2)C1=O` [Compound 73, (S)-2-ethyl-4-((1-(2-fluoro-4′-methyl-[1,1′-biphenyl]-4-yl)ethyl)amino)-2,3-dihydro-1H-pyrrolo[3,4-c]pyridin-1-one], the values for the IC50 (at IDH1 R132C; in test [1]; on IDH1 R132H) were greater than 1 µM, greater than 1 µM and 0.1 to 0.5 µM, respectively.

In the case of `CCN1Cc2c(ccnc2N[C@@H](C)c2ccc(-c3ccc(F)cc3)c(F)c2)C1=O` [Compound 74, (S)-4-((1-(2,4′-difluoro-[1,1′-biphenyl]-4-yl)ethyl)amino)-2-ethyl-2,3-dihydro-1H-pyrrolo[3,4-c]pyridin-1-one], the IC50 (on IDH1 R132C; in test [1]; at IDH1 R132H) was greater than 1 µM each time.

In the case of `CCN1Cc2c(ccnc2N[C@@H](C)c2ccc(-c3ccc(C(F)(F)F)nc3)c(F)c2)C1=O` [Compound 75, (S)-2-ethyl-4-((1-(3-fluoro-4-(6-(trifluoromethyl)pyridin-3-yl)phenyl)ethyl)amino)-2,3-dihydro-1H-pyrrolo[3,4-c]pyridin-1-one], the half-inhibitory concentration (IC50) (at IDH1 R132C; in test [1]; on IDH1 R132H) was greater than 1 µM each time.

Take `CCN1Cc2c(ccnc2N[C@@H](C)c2ccc(-c3cc(C)nc(C)c3)c(F)c2)C1=O` [Compound 76, (S)-4-((1-(4-(2,6-dimethylpyridin-4-yl)-3-fluorophenyl)ethyl)amino)-2-ethyl-2,3-dihydro-1H-pyrrolo[3,4-c]pyridin-1-one]: the concentration for half-maximal inhibition (IC50) (on IDH1 R132C; in test [1]; at IDH1 R132H) was greater than 1 µM each time.

Turning to `CCN1Cc2c(ccnc2N[C@@H](C)c2ccc(-c3ccnc(C4CCC4)c3)c(F)c2)C1=O` [Compound 77, (S)-4-((1-(4-(2-cyclobutylpyridin-4-yl)-3-fluorophenyl)ethyl)amino)-2-ethyl-2,3-dihydro-1H-pyrrolo[3,4-c]pyridin-1-one], the figures for the IC50 (on IDH1 R132C; in test [1]; at IDH1 R132H) were 0.1 to 0.5 µM, 0.5 to 1 µM and 0.1 to 0.5 µM, respectively.

On to `CCN1Cc2c(ccnc2N[C@@H](C)c2ccc(-c3ccnc(C4(O)CCC4)c3)c(F)c2)C1=O` [Compound 78, (S)-2-ethyl-4-((1-(3-fluoro-4-(2-(1-hydroxycyclobutyl)pyridin-4-yl)phenyl)ethyl)amino)-2,3-dihydro-1H-pyrrolo[3,4-c]pyridin-1-one], for which the IC50 was greater than 1 µM at IDH1 R132C, 0.5 to 1 µM in test [1] and greater than 1 µM at IDH1 R132H.

Turning to `CCN1Cc2c(ccnc2N[C@@H](C)c2ccc(-c3ccnc(CC4CC4)c3)c(F)c2)C1=O` [Compound 79, (S)-4-((1-(4-(2-(cyclopropylmethyl)pyridin-4-yl)-3-fluorophenyl)ethyl)amino)-2-ethyl-2,3-dihydro-1H-pyrrolo[3,4-c]pyridin-1-one], the values for the half-maximal inhibitory concentration (IC50) (at IDH1 R132C; in test [1]; at IDH1 R132H) were 0.1 to 0.5 µM, 0.5 to 1 µM and 0.1 to 0.5 µM, respectively.

On to `CCN1Cc2c(ccnc2N[C@@H](C)c2ccc(-c3ccccc3)c(F)c2)C1=O` [Compound 80, (S)-2-ethyl-4-((1-(2-fluoro-[1,1′-biphenyl]-4-yl)ethyl)amino)-2,3-dihydro-1H-pyrrolo[3,4-c]pyridin-1-one], for which the IC50 (at IDH1 R132C; in test [1]; on IDH1 R132H) was greater than 1 µM each time.

In the case of `CCN1Cc2c(ccnc2N[C@@H](C)c2ccc(-c3ccc(F)c(C)c3)c(F)c2)C1=O` [Compound 81, (S)-4-((1-(2,4′-difluoro-3′-methyl-[1,1′-biphenyl]-4-yl)ethyl)amino)-2-ethyl-2,3-dihydro-1H-pyrrolo[3,4-c]pyridin-1-one], the results for the half-maximal inhibitory concentration (IC50) (on IDH1 R132C; in test [1]; at IDH1 R132H) were 0.5 to 1 µM, greater than 1 µM and 0.1 to 0.5 µM, respectively.

For the origin of these results see US12441725B2, “ISO-citrate dehydrogenase (IDH) inhibitor” (ZHEJIANG METON PHARMACEUTICAL CO., LTD, priority 2019, dated 2025).
